pKi: −log10 of the molar value.
target: A2a adenosine receptor (Homo sapiens (Human), UniProt P29274); experiment: Cyclic adenosine monophosphate (cAMP) production measurement in CHO-A2A cells; type: cell-based; settings: 1 μM NECA, 30 μM rolipram, cAMP enzymeimmunoassay
Method: (§1) Concentration-response binding competition curves were carried out by assaying 6 different concentrations (range between 10 nm to 100 μM). […] IC50 values were obtained by fitting the data with non-linear regression, with Prism 2.1 software (GraphPad, San Diego, Calif.). Cyclic Adenosine Monophosphate Production Measurement.
These assays were performed at adenosine receptors transfected using a cAMP enzymeimmunoassay kit (Amersham Biosciences). CHO-A2A cells were seeded (10000 cells/well) in 96-well culture plates and incubated at 37° C. in an atmosphere with 5% CO2 in Dulbecco's Modified Eagle's Medium Nutrient Mixture F-12 (DMEM F-12), containing 10% Foetal Calf Serum (FCS) and 1% L-Glutamine. Cells were washed 3× with 200 μl assay medium (DMEM-F12 and 25 mM HEPES pH=7.4) and pre-incubated with assay medium containing 30 μM rolipram and test compounds at 37° C. for 15 min. 1 μM NECA was incubated for 15 min at 37° C. (total incubation time 30 min). Reaction was stopped with lysis buffer supplied in the kit and the enzymeimmunoassay was carried out for detection of intracellular cAMP at 450 nm in an Ultra Evolution detector (Tecan). Data were fitted by non-linear regression using GraphPad Prism v2.01 (GraphPad Software).

Sequence of A2a adenosine receptor (P29274 whole entry): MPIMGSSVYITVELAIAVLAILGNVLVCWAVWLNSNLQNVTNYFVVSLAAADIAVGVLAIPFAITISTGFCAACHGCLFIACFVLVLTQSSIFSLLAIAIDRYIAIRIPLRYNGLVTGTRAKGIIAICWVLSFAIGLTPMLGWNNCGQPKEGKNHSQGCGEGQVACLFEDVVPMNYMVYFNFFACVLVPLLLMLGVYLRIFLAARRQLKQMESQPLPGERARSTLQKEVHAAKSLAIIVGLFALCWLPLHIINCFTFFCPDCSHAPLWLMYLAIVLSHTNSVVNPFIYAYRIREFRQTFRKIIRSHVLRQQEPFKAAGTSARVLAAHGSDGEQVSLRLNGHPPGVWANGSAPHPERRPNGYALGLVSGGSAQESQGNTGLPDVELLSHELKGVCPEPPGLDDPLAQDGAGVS

Point of comparison: `Nc1nc(-n2cccn2)nc(NC2CC2)c1Br` [Example 8, 5-bromo-N^4-cyclopropyl-2-(1H-pyrazol-1-yl)pyrimidine-4,6-diamine], pKi 7.22. Against it:
- CN(C)c1nc(-n2cccn2)nc(N)c1Br [Example 13, 5-bromo-N^4,N^4-dimethyl-2-(1H-pyrazol-1-yl)pyrimidine-4,6-diamine] — within 0.2 log units, 7.30
- Nc1nc(-c2nccs2)nc(-c2nccs2)c1Br [Example 93, 5-Bromo-2,6-di(thiazol-2-yl)pyrimidin-4-amine] — 0.70 log units higher, 7.92

target: hA2a receptors (Homo sapiens (Human), UniProt P29274); experiment: Adenosine A2a receptor subtype competition radioligand binding assay; settings: membranes from hA2a receptors transfected to HeLa cells, [3H]ZM241385 as radioligand, Cheng-Prusoff
Method: Pharmacological Activity Adenosine A2a Receptor Subtype Competition Radioligand Binding Assay
Human membranes from recombinant adenosine receptors were purchased from Receptor Biology, Inc. (USA)
Competition assays were carried out by incubation of membranes from hA2a receptors transfected to HeLa cells, [^3H]ZM241385 as radioligand, buffer (50 mM Tris-HCl (pH=7.4), 10 mM MgCl2, 1 mM EDTA, 2 units/ml adenosine deaminase), and unlabelled ligand in a total volume of 0.2 ml for 30 min at 25° C. NECA was used to determinate non-specific binding. Filter over Schleicher&Schuell GF/52 filters (pre-soaked 0.5% polyethylenimine) in a Brandel cell harvester. Unbound radioligand was removed with 3×250 μl ice-cold 50 mM Tris-HCl (pH=7.4), 10 mM MgCl and 1 mM EDTA.
as §1

Sequence of hA2a receptors (P29274 whole entry): as above

Point of comparison: `CN(C)c1nc(-n2cccn2)nc(N)c1Br` [Example 13, 5-bromo-N^4,N^4-dimethyl-2-(1H-pyrazol-1-yl)pyrimidine-4,6-diamine], pKi 7.46. Against it:
- Nc1nc(-n2cccn2)nc(N2CCCC2)c1Br [Example 3, 5-bromo-2-(1H-pyrazol-1-yl)-6-(pyrrolidin-1-yl)pyrimidin-4-amine] — 0.50 log units higher, 7.96
- Nc1nc(-n2cccn2)nc(NC2CCCC2)c1Br [Example 4, 5-bromo-N^4-cyclopentyl-2-(1H-pyrazol-1-yl)pyrimidine-4,6-diamine] — 0.76 log units higher, 8.22
- Nc1nc(-n2cccn2)nc(N2CCCCC2)c1Br [Example 5, 5-bromo-6-(piperidin-1-yl)-2-(1H-pyrazol-1-yl)pyrimidin-4-amine] — 0.39 log units higher, 7.85
- Nc1nc(-n2cccn2)nc(NC2CC2)c1Br [Example 8, 5-bromo-N^4-cyclopropyl-2-(1H-pyrazol-1-yl)pyrimidine-4,6-diamine] — 0.28 log units higher, 7.74
- Nc1nc(-n2cccn2)nc(N2CCC2)c1Br [Example 9, 6-(azetidin-1-yl)-5-bromo-2-(1H-pyrazol-1-yl)pyrimidin-4-amine] — within 0.2 log units, 7.48
- Nc1nc(-n2cccn2)nc(NC2CCC2)c1Br [Example 10, 5-bromo-N^4-cyclobutyl-2-(1H-pyrazol-1-yl)pyrimidine-4,6-diamine] — 0.22 log units higher, 7.68
- COC[C@H]1CCCN1c1nc(-n2cccn2)nc(N)c1Br [Example 20, 5-bromo-6-((R)-2-(methoxymethyl)pyrrolidin-1-yl)-2-(1H-pyrazol-1-yl)pyrimidin-4-amine] — 0.39 log units higher, 7.85
- CNc1nc(-n2cccn2)nc(N)c1Br [Example 24, 5-bromo-N^4-methyl-2-(1H-pyrazol-1-yl)pyrimidine-4,6-diamine] — 0.34 log units higher, 7.80
- Nc1nc(-n2cccn2)nc(NCC2CC2)c1Br [Example 29, 5-bromo-N^4-(cyclopropylmethyl)-2-(1H-pyrazol-1-yl)pyrimidine-4,6-diamine] — 0.54 log units higher, 8.00
- CCSc1nc(-n2cccn2)nc(N)c1Br [Example 36, 5-bromo-6-(ethylthio)-2-(1H-pyrazol-1-yl)pyrimidin-4-amine] — 0.64 log units higher, 8.10
- CC(C)Sc1nc(-n2cccn2)nc(N)c1Br [Example 38, 5-bromo-6-(isopropylthio)-2-(1H-pyrazol-1-yl)pyrimidin-4-amine] — 0.69 log units higher, 8.15
- Nc1nc(-n2cccn2)nc(OCC(F)(F)F)c1Br [Example 44, 6-(2,2,2-trifluoroethoxy)-5-bromo-2-(1H-pyrazol-1-yl)pyrimidin-4-amine] — 0.39 log units higher, 7.85
- Nc1nc(-n2cccn2)nc(-n2cccn2)c1Cl [Example 46, 5-chloro-2,6-di-(1H-pyrazol-1-yl)pyrimidine-4-amine] — 0.31 log units higher, 7.77
- N#Cc1c(N)nc(-n2cccn2)nc1-n1cccn1 [Example 48, 4-amino-2,6-di-(1H-pyrazol-1-yl)pyrimidine-5-carbonitrile] — 0.69 log units higher, 8.15
- Nc1nc(-c2nccs2)nc(-c2nccs2)c1Br [Example 93, 5-Bromo-2,6-di(thiazol-2-yl)pyrimidin-4-amine] — 1.54 log units higher, 9.00
